For one assay, the system named is LN95-D3 xenografts. As to the kind of experiment: Growth of LN95-D3 CRPC xenografts in castrated male NSG mice. The assay is classed as in vivo. The conditions noted are these: castrated mice, ATRA 5 mg 21-day release pellet, EPI-7170 30 mg/kg daily oral, relative to vehicle/placebo-control.
For assay [1], the system named is Pin1, Cyclin D1, Skp2 and AR in LN95-D3 tumors. As to the kind of experiment: Western blot of harvested LN95-D3 xenograft tumors (Pin1, Cyclin D1, Skp2, AR). The following applies: LN95-D3 tumors at end of study. The assay is classed as in vivo, mice. How it is done:
Scale bars represent 5 mm (f) western blot analysis showing the expression of Pin1, Cyclin D1, Skp2, and AR from representative tumors. Quantification of the data is shown for g Pin1 and h Skp2, where the error bars represent the mean ± s.e.m.
All experiments involving animals conform to the relevant regulatory and ethical standards and were approved by the University of British Columbia Animal Care Committee (A18-0077). Metacam (1 mg/kg, 0.05 mL/10 g of body weight) was administered subcutaneously prior to any surgery. Animals were anesthetized with isoflurane and euthanized by CO2. Six–eight-week-old male (NOD-scid IL2Rgamma^null) mice were maintained in the Animal Care Facility at the British Columbia Cancer Research Centre. Mice were castrated 2 weeks before they were subcutaneously inoculated in the right flank with two million LN95-D3 cells in a 1:1 volume of matrigel (Corning Discovery Labware, Corning, NY). […] Tumors were excised 1 day after the last dose and prepared for western blot analysis and immunohistochemistry.
In general terms: Immunoblotting shows a protein as a band on a membrane.

Assay [2] concerns Ki-67, PSA and AR in LN95-D3 xenografts. The assay is described as follows: Immunohistochemistry of LN95-D3 xenografts (Ki-67, PSA, AR). The assay is classed as in vivo, mice. The text has this: Fig. 8 Immunohistochemistry of LN95-D3 xenografts. a Representative images showing the histomorphology and expression of Ki-67, PSA, and AR from harvested tumors. Scale bars represent 100 µm. Statistical analysis for b the percentage of Ki-67-positive tumor cells and for the expression of c PSA and d AR. Error bars represent the mean ± s.d.
Sections were cut from formalin-fixed, paraffin-embedded tumor tissue at a thickness of 5 µm, deparaffinized in xylene, and then rehydrated in alcohols and distilled water. Endogenous peroxidase was blocked by incubating with a 3% hydrogen peroxide solution for 5 min. […] PSA was detected using a monoclonal mouse anti-human PSA antibody concentrate (ER-PR8; Dako). A negative control without the primary antibody was included for each sample on the same slide. Antigen was detected with 3,3-diaminobenzidine (DAB) and hematoxylin was used for counterstaining. Images were captured on an Axio Imager M2 microscope (Zeiss) at ×200 magnification. The percentage of Ki-67-positive cells was determined with ImageJ using the Cell Counter plugin. At least 1000 cells were scored from three images of representative tumors for each treatment group. The intensity of DAB staining for PSA was quantified by ImageJ using color deconvolution and measuring the mean gray value for the DAB image, where optical density = log(max intensity/mean intensity), and a max intensity of 255 for an 8-bit image.

In another assay the target is T1, full-length AR (Homo sapiens, UniProt P10275, T878A).
T1 construct: Transcriptional activity of full-length AR was assessed in LNCaP cells; endogenous in cells; host or cells: LNCaP
T1 sequence (P10275 1-920 T878A): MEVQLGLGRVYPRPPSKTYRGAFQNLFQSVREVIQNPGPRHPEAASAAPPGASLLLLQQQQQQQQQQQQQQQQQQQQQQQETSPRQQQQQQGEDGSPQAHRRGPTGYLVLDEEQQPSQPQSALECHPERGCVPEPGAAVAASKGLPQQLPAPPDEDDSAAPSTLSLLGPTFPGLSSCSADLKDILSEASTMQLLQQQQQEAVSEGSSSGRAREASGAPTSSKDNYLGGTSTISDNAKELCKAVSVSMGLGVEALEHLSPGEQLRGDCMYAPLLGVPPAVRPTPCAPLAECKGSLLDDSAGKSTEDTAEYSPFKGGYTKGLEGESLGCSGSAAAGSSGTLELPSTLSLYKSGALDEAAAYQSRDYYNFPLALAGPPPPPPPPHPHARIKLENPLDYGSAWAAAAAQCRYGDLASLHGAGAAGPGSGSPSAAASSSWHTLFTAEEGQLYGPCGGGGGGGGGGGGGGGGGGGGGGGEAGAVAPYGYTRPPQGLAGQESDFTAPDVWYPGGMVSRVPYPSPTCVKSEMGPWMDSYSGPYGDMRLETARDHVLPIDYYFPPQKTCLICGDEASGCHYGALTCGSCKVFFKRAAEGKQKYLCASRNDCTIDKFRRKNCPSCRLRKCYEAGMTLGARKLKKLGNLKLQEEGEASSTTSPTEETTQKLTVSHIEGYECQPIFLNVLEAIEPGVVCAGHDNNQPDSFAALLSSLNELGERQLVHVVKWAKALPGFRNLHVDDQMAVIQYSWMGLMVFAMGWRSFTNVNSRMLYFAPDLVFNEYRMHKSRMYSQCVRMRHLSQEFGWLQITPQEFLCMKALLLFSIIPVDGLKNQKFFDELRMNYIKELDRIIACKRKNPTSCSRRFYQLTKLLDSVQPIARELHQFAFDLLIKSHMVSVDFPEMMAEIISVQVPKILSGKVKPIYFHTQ
The assay is described as follows: PSA(6.1 kb)-luciferase AR-driven reporter assay in LNCaP cells. The following applies: for PSA(6.1 kb)-luciferase activity normalized to fold-induction by R1881 (=100): without or with ATRA 5uM; for fractional response (Fig. 5h): monotherapy or with 5 µM ATRA. It counts as cell-based. A general note: A reporter such as luciferase makes a cellular process visible.

For assay [3], the system named is Pin1 and cell cycle proteins in LN95 cells. The assay is described as follows: Western blot of Pin1 and cell cycle proteins in LN95 cells. The conditions noted are these: for CyclinA2 protein level (Fig. 6a) / CyclinB1 protein level (Fig. 6a) / CyclinD1 protein level (Fig. 6a) / Pin1 protein level (Fig. 6a) / p21 protein level (Fig. 6a) / p27 protein level (Fig. 6a): relative to 0 μM = 1, replicate experiments by date.
Description: Data shown are the means ± s.e.m. from 3–4 independent experiments. Statistical significance was determined by ANOVA using the Dunnett’s multiple comparisons test. *P < 0.05, **P < 0.01, ***P < 0.001.
For western blot analyses, membranes were blocked with 5% non-fat milk in phosphate-buffered saline containing 0.1% Tween-20 (PBS-T) and then incubated overnight at 4 °C with primary antibody (1:200–5000) in PBS-T containing 5% non-fat milk or 2% BSA. After incubation with the primary antibody, the membrane was washed three times with TBS-T, incubated with a horseradish peroxidase-conjugated antibody secondary antibody (1:5000–10,000) for 1–2 h at room temperature, and washed three times with PBS-T and two more times with PBS before chemiluminescence was detected with ECL Prime Reagent (GE Healthcare Life Science, Mississauga, ON). Western blot images were captured using the ChemiDoc MP Imaging System (Bio-Rad Laboratories, Hercules, CA) and quantified using ImageJ software.

Assay [4] deals with T2, recombinant human Pin1 protein (Homo sapiens, UniProt Q13526).
T2 construct: purchased Abcam ab51230
T2 sequence (Q13526 whole entry): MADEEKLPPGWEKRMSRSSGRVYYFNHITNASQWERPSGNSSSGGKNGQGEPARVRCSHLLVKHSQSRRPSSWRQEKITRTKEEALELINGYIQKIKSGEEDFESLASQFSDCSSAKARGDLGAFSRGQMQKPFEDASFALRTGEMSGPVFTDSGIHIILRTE
As to the kind of experiment: Pin1 inhibition assay (fluorometric isomerase activity). The assay is classed as biochemical. The following applies: compounds 0–50 µM, 500 ng Pin1, Supplementary Fig. 2. How it is done:
The effect of inhibitors on Pin1 isomerase activity was evaluated using a fluorometric Pin1 Assay Kit (AnaSpec, Fremont, California), according to the manufacturer’s protocol. […] Fluorescence intensity was measured with excitation wavelength at 490 nm and emission wavelength at 520 nm on an Infinite M1000 plate reader (Tecan, Männedorf, Switzerland) at 37 °C. Measurements were recorded every 5 min for up to 1 h.
Fluorescent polarization-based assay
the isomerase activity of Pin1. Each reaction contains 500 ng of
recombinant human Pin1 protein incubated with an inhibitor and a
fluorogenic substrate at 37°C. The uncatalyzed reaction represents
the intrinsic cis/trans isomerization of the substrate without Pin1
separate experiments with the correlation performed in duplicate
wells. RFU, relative fluorescent units.
(1 picture or pasted object on this page, not shown here)

The subject of a further assay is LN95-D3 cells. The assay is described as follows: Cell cycle analysis by flow cytometry, LN95-D3 subline. The assay is classed as cell-based, human. The conditions noted are these: LN95-D3, absence of androgen, 48 h. (In general: A flow cytometer gives signals particle by particle.)
For assay [5], the system named is androgen-regulated genes (KLK3/PSA, TMPRSS2, NKX3.1, FKBP5). As to the kind of experiment: Quantitative real-time PCR of androgen-regulated genes in LNCaP cells. It counts as cell-based, human. The conditions noted are these: enzalutamide 5 μM, juglone 20 μM, R1881 1 nM, 48 hours.

Values joined by “and” are separate entries in the source; they are usually repeats but may differ in a detail not shown here. Equal entries are not always repeated.

Take `CC(C)(c1ccc(OC[C@H](O)CNS(C)(=O)=O)cc1)c1cc(Cl)c(OC[C@H](O)CCl)c(Cl)c1` [EPI-7170]: in the assay on LN95-D3 xenografts, the “tumor growth after 21 days of treatment” value is on record as “significantly reduced”. The “tumor levels of Skp2” value in assay [1] is on record as “reduced”. For the same molecule, the “effect on number of Ki-67-positive tumor cells” value in assay [2] (LN95-D3 xenografts) is “decreased the number of Ki-67-positive tumor cells in xenografts”. In assay [2] (LN95-D3 xenografts), the “levels of AR protein in xenografts (IHC)” value is recorded as “similar”. Moreover, in assay [2] (LN95-D3 xenografts, ATRA 5 mg pellet, EPI-7170 30 mg/kg/d, listed as EPI placebo), the “expression of AR, DAB staining (Fig. 8d)” value was 0.086 and 0.114 and 0.139 and 0.128 and 0.109 and 0.1 and 0.132 and 0.137. In addition, the “percentage of Ki-67-positive tumor cells (Fig. 8b)” value in assay [2] (LN95-D3 xenografts, ATRA 5 mg pellet, EPI-7170 30 mg/kg/d, one value per tumor, listed as EPI placebo) is 19.68% and 14.7% and 15.02%. The “effect on PSA expression in xenografts (IHC)” value in assay [2] (compared to the control) is “decreased”. The “inhibition of reporter activity at highest concentration” value at full-length AR (4 µM of EPI-7170) is recorded as ~ 98%. In addition, at full-length AR (ATRA 5 μM, Bliss independence model, highest concentrations excluded), the “mean combination index (CI) with ATRA, PSA(6.1 kb)-luciferase” value was 0.91. Further, the “PSA(6.1 kb)-luciferase activity normalized to fold-induction by R1881 (=100)” value on full-length AR (EPI-7170 0.2 μM) was 77.0788 and 79.4022 and 93.7923 and 73.47; at full-length AR (EPI-7170 0.5 μM), 56.3224 and 79.2412 and 61.2392 and 64.29. For the same molecule, the “fractional response (Fig. 5h)” value on full-length AR (EPI-7170 2 μM) is 0.8636 and 0.6689 and 0.7916 and 0.8858; at full-length AR (EPI-7170 4 μM), 0.9949 and 0.9737 and 0.993 and 0.9732. In addition, the IC50 on full-length AR (LNCaP, androgen-induced (R1881), 24 h, without ATRA, read-out: IC50 for PSA(6.1 kb) luciferase, monotherapy) was determined as 740 ± 1120 nM.

Regarding `CC1=C(/C=C/C(C)=C/C=C/C(C)=C\C(=O)O)C(C)(C)CCC1` [13cisRA, 13-cis-retinoic acid], in assay [3] (1 μM), the “CyclinA2 protein level (Fig. 6a)” value is 1.4 and 0.72 and 1.11; the “CyclinB1 protein level (Fig. 6a)” value is 1.01 and 0.65 and 1.18; the “CyclinD1 protein level (Fig. 6a)” value is 0.66 and 0.89 and 1.34 and 0.47; the “Pin1 protein level (Fig. 6a)” value is 1.03 and 1.11 and 1.06 and 0.77. For the same molecule, in assay [3] (1 μM), the “p21 protein level (Fig. 6a)” value was 1.11 and 0.58 and 0.74; the “p27 protein level (Fig. 6a)” value is 1.11 and 0.36 and 0.65. Moreover, in assay [3] (5 μM), the “CyclinA2 protein level (Fig. 6a)” value is 1.68 and 0.83 and 0.8; the “CyclinB1 protein level (Fig. 6a)” value is 1.11 and 0.76 and 0.82; the “CyclinD1 protein level (Fig. 6a)” value was 0.7 and 1.29 and 1.73 and 0.85; the “Pin1 protein level (Fig. 6a)” value is 0.96 and 1.44 (2×) and 0.77. Further, in assay [3] (5 μM), the “p21 protein level (Fig. 6a)” value was 0.92 and 0.24 and 0.67; the “p27 protein level (Fig. 6a)” value was 0.91 and 0.32 and 0.6. In assay [3] (10 μM), the “CyclinA2 protein level (Fig. 6a)” value is 1.29 and 0.49 and 1.45; the “CyclinB1 protein level (Fig. 6a)” value is 1.06 and 0.77 and 1.15; the “CyclinD1 protein level (Fig. 6a)” value was 0.54 and 1.01 and 0.27 and 0.84; the “Pin1 protein level (Fig. 6a)” value was 0.95 and 0.71 and 1.33 and 1.23. In assay [3] (10 μM), the “p21 protein level (Fig. 6a)” value is 0.89 and 0.39 and 1.12; the “p27 protein level (Fig. 6a)” value was 1.06 and 0.44 and 1.1. Besides, in assay [3] (LN95, 0–10 µM), the “effect on cellular Pin1 protein levels” value is recorded as “did not impact the cellular levels of Pin1”. Besides, the “effect on isomerase activity of Pin1” value in assay [4] is “did not inhibit the isomerase activity of Pin1”.

With `CNC(=O)c1ccc(N2C(=S)N(c3ccc(C#N)c(C(F)(F)F)c3)C(=O)C2(C)C)cc1F` [enzalutamide], in the assay on LN95-D3 cells, the “effect on cell cycle distribution” value is given as “had no effect on the cell cycle distribution”. The “effect on androgen-induced FKBP5 transcript” value in assay [5] is recorded as “efficiently blocked”.

In general, IC50 refers to the concentration that inhibits the measured activity by half.

(Values after PMC7985297 (Communications Biology, 2021).)
